This passage reports Kp and Kp uu results from ChEMBL document CHEMBL4373730, “Practical approaches to evaluating and optimizing brain exposure in early drug discovery” (Eur J Med Chem, 2019).

Series [1] in a line: Brain to plasma partition coefficient, Kp of the compound in rat. Format: ADME, organism-based. The settings on record: brain and plasma.
Series [2] can be described thus: in vivo. As to conditions: rat, brain and plasma.
Description: Unbound brain-to-plasma concentration ratio in rat

Turning to `Cc1nc2n(c(=O)c1CCN1CCC(c3noc4cc(F)ccc34)CC1)CCCC2` [RISPERIDONE], the Kp (as a rule, the ratio of the level in a tissue or fluid to that in plasma or blood) in series [1] amounted to 8.5. In series [2], this compound registered a Kp uu of 0.9.

In the case of `CN1CCN(C2=Nc3cc(Cl)ccc3Nc3ccccc32)CC1` [CLOZAPINE], the Kp in series [1] was 8.5. This compound returned a Kp uu in series [2] of 0.9.

Compound `CN(C)CCCN1c2ccccc2Sc2ccc(Cl)cc21` [CHLORPROMAZINE] came in with a Kp in series [1] of 8.5. Also, the Kp uu in series [2] was determined as 0.9.

In the case of `O=C(CCCN1CCC(O)(c2ccc(Cl)cc2)CC1)c1ccc(F)cc1` [HALOPERIDOL], the Kp in series [1] came to 8.5. In series [2], this compound displayed a Kp uu of 0.9.

`O=C1Cc2cc(CCN3CCN(c4nsc5ccccc45)CC3)c(Cl)cc2N1` [ZIPRASIDONE] gave a Kp in series [1] of 8.5. In series [2], the Kp uu was 0.9.

`OCCOCCN1CCN(C2=Nc3ccccc3Sc3ccccc32)CC1` [QUETIAPINE] had a Kp in series [1] of 8.5. In addition, in series [2], the Kp uu was 0.9.
